Like-named read-outs stand apart in the source and are kept apart here.
Molecular target: T1, human type 1 glycine transporter (GlyT1) (Homo sapiens, UniProt P48067)
T1 construct: T98G cells (glioma cells) expressing human type 1 glycine transporter (GlyT1) were used; endogenous in cells; host or cells: T98G cells (human glioma cells)
T1 sequence (P48067 1-706): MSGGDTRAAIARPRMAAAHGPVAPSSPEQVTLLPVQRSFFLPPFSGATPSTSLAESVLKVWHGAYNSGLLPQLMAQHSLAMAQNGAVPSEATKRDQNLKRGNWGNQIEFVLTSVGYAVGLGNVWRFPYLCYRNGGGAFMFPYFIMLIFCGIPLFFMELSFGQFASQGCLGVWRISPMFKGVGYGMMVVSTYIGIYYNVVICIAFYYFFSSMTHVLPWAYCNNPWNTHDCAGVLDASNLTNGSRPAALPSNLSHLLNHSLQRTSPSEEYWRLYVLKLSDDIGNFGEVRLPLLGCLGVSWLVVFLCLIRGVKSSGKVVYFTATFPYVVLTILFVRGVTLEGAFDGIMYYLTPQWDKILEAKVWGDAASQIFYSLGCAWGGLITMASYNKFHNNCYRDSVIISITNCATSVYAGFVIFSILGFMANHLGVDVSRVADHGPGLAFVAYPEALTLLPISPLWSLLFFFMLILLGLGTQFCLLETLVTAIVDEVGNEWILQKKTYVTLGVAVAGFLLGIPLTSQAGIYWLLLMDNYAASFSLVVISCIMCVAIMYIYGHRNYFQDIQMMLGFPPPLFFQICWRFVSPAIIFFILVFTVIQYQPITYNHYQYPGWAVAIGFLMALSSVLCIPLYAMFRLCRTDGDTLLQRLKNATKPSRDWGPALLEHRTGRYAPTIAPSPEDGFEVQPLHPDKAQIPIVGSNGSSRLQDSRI
Test: Glycine uptake inhibition experiment ([3H] glycine uptake in T98G cells expressing GlyT1)
Assay type: cell-based
Summary of the method: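 T98G glioma cells expressing human GlyT1 were pretreated 10 min with compound in HEPES buffer pH 7.4 (0.2% BSA), then incubated with compound plus 250 nM final [3H]glycine for 15 min at room temperature. Intracellular radioactivity was counted after NaOH lysis; 10 μM ALX5407 defined non-specific uptake. IC50 came from 10^−9–10^−5 M curves.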

[1] = table section whose head prints (μm)

IC50 (glycine uptake inhibition)	Compound	also measured
12 nM	COc1cc(CN2C(=O)C(F)(F)c3c([C@H](C)O)cccc32)ccn1 [Compound 124, 3,3-difluoro-4-[(1S)-1-hydroxyethyl]-1-[(2-methoxypyridin-4-yl)methyl]-1,3-dihydro-2H-indol-2-one]	–
5300 nM	C[C@@H](O)c1cccc2c1C(F)(F)C(=O)N2Cc1ccnc(C#N)c1 [Compound 38, 4-({3,3-difluoro-4-[(1R)-1-hydroxyethyl]-2-oxo-2,3-dihydro-1H-indol-1-yl}methyl)pyridine-2-carbonitrile]	–
20 nM	C[C@H](O)c1cccc2c1C(F)(F)C(=O)N2Cc1ccccc1 [Compound 54, 1-benzyl-3,3-difluoro-4-[(1S)-1-hydroxyethyl]-1,3-dihydro-2H-indol-2-one]	–
23 nM	CC(O)c1cccc2c1C(F)(F)C(=O)N2Cc1ccnc(Cl)c1 (stereo not shown) [Compound 27, 1-[(2-chloropyridin-4-yl)methyl]-3,3-difluoro-4-(1-hydroxyethyl)-1,3-dihydro-2H-indol-2-one]	–
230 nM	C[C@H](O)c1cccc2c1C(F)(F)C(=O)N2Cc1ccccn1 [Compound 60, 3,3-difluoro-4-[(1S)-1-hydroxyethyl]-1-(pyridin-2-ylmethyl)-1,3-dihydro-2H-indol-2-one]	–
940 nM	C[C@H](O)c1cccc2c1C(F)(F)C(=O)N2Cc1ccc(C#N)cn1 [Compound 113, 6-({3,3-difluoro-4-[(1S)-1-hydroxyethyl]-2-oxo-2,3-dihydro-1H-indol-1-yl}methyl)pyridine-3-carbonitrile]	–
91 nM	C[C@H](O)c1cccc2c1C(F)(F)C(=O)N2Cc1ccc(Cl)nc1 [Compound 102, 1-[(6-chloropyridin-3-yl)methyl]-3,3-difluoro-4-[(1S)-1-hydroxyethyl]-1,3-dihydro-2H-indol-2-one]	–
87 nM	C[C@H](O)c1cccc2c1C(F)(F)C(=O)N2Cc1nc2ccccc2[nH]1 [Compound 88, 1-(1H-benzimidazol-2-ylmethyl)-3,3-difluoro-4-[(1S)-1-hydroxyethyl)-1,3-dihydro-2H-indol-2-one]	–

Second part, the molecule before the results:

Compound	IC50 (glycine uptake inhibition)	also measured
C[C@H](O)c1cccc2c1C(F)(F)C(=O)N2Cc1cnccc1Cl [Compound 207, 1-[(4-chloropyridin-3-yl)methyl]-3,3-difluoro-4-[(1S)-1-hydroxyethyl]-1,3-dihydro-2H-indol-2-one]	–	IC50: 94 nM
C[C@H](O)c1cccc2c1C(F)(F)C(=O)N2Cc1ncccc1C#N [Compound 213, 2-({3,3-difluoro-4-[(S)-1-hydroxyethyl]-2-oxo-2,3-dihydro-1-indol-1-yl}methyl)pyridine-3-carbonitrile]	–	IC50: 40 nM
C[C@H](O)c1cccc2c1C(F)(F)C(=O)N2Cc1nc2ncccc2c(=O)n1C [Compound 108, 2-({3,3-difluoro-4-[(1S)-1-hydroxyethyl]-2-oxo-2,3-dihydro-1H-indol-1-yl}methyl)-3-methylpyrido[2,3-d]pyrimidin-4(3H)-one]	240 nM	–
O=C1N(Cc2cccc(Cl)n2)c2cccc(C(O)C(F)F)c2C1(F)F (single isomer, unassigned) [Compound 126, 1-[(6-chloropyridin-2-yl)methyl]-4-(2,2-difluoro-1-hydroxyethyl)-3,3-difluoro-1,3-dihydro-2H-indol-2-one]	7.9 nM	–
C[C@H](O)c1cccc2c1C(F)(F)C(=O)N2Cc1ccnc(-n2nccn2)c1 [Compound 45, 3,3-difluoro-4-[(1S)-1-hydroxyethyl]-1-{[2-(2H-1,2,3-triazol-2-yl)pyridin-4-yl]methyl}-1,3-dihydro-2H-indol-2-one]	110 nM	–
O=C1N(Cc2ccc(C(F)(F)F)cn2)c2cccc(C(O)C(F)F)c2C1(F)F (single isomer, unassigned) [Compound 169]	–	IC50: 56 nM
O=C1N(Cc2cncc(F)c2)c2cccc(C(O)C(F)F)c2C1(F)F (single isomer, unassigned) [Compound 144, 4-(2,2-difluoro-1-hydroxyethyl)-3,3-difluoro-1-[(5-fluoropyridin-3-yl)methyl]-1,3-dihydro-2H-indol-2-one]	240 nM	–
C[C@H](O)c1cccc2c1C(F)(F)C(=O)N2Cc1ccc2ncoc2c1 [Compound 127, 1-(1,3-benzoxazol-6-ylmethyl)-3,3-difluoro-4-[(1S)-1-hydroxyethyl]-1,3-dihydro-2H-indol-2-one]	29 nM	–
CC(O)c1cccc2c1C(F)(F)C(=O)N2Cc1cncc(Cl)c1 (single isomer, unassigned) [Compound 6, 1-[(5-chloropyridin-3-yl)methyl]-3,3-difluoro-4-(1-hydroxyethyl)-1,3-dihydro-2H-indol-2-one]	3700 nM	–
O=C1N(Cc2cncc(Cl)n2)c2cccc(C(O)C(F)F)c2C1(F)F (single isomer, unassigned) [Compound 172, 1-[(6-chloropyrazin-2-yl)methyl]-4-(2,2-difluoro-1-hydroxyethyl)-3,3-difluoro-1,3-dihydro-2H-indol-2-one]	–	IC50: 24 nM
C[C@H](O)c1cccc2c1C(F)(F)C(=O)N2Cc1cc(C#N)ncc1Cl [Compound 195, 5-chloro-4-({3,3-difluoro-4-[(1S)-1-hydroxyethyl]-2-oxo-2,3-dihydro-1H-indol-1-yl}methyl)pyridine-2-carbonitrile]	–	IC50: 42 nM
C[C@H](O)c1cccc2c1C(F)(F)C(=O)N2Cc1cc2ccccc2c(=O)n1C [Compound 100, 3-({3,3-difluoro-4-[(1S)-1-hydroxyethyl]-2-oxo-2,3-dihydro-1H-indol-1-yl}methyl)-2-methylisoquinolin-1(2H)-one]	29 nM	–
O=C1N(Cc2cc(Cl)ccn2)c2cccc(C(O)C(F)F)c2C1(F)F (single isomer, unassigned) [Compound 146, 1-[(4-chloropyridin-2-yl)methyl]-4-(2,2-difluoro-1-hydroxyethyl)-3,3-difluoro-1,3-dihydro-2H-indol-2-one]	61 nM	–
O=C1N(Cc2cnc(Cl)cc2Cl)c2cccc(C(O)C(F)F)c2C1(F)F (single isomer, unassigned) [Compound 269, 1-[(4,6-dichloropyridin-3-yl)methyl]-4-(2,2-difluoro-1-hydroxyethyl)-3,3-difluoro-1,3-dihydro-2H-indol-2-one]	–	IC50 [1]: 330 nM
O=C1N(Cc2cncc(Cl)n2)c2cccc([C@@H](O)C(F)(F)F)c2C1(F)F [Compound 47, 1-[(6-chloropyrazin-2-yl)methyl]-3,3-difluoro-4-[(1R)-2,2,2-trifluoro-1-hydroxyethyl]-1,3-dihydro-2H-indol-2-one]	40 nM	–
C[C@H](O)c1cccc2c1C(F)(F)C(=O)N2Cc1cc(C#N)ncc1F [Compound 188, 4-({3,3-difluoro-4-[(1S)-1-hydroxyethyl]-2-oxo-2,3-dihydro-1H-indol-1-yl}methyl)-5-fluoropyridine-2-carbonitrile]	–	IC50: 62 nM
C[C@H](O)c1cccc2c1C(F)(F)C(=O)N2Cc1cc(Cl)c(F)cn1 [Compound 250]	–	IC50: 9.8 nM
N#Cc1nc(CN2C(=O)C(F)(F)c3c(C(O)C(F)F)cccc32)ccc1C(F)(F)F (single isomer, unassigned) [Compound 270, 6-{[4-(2,2-difluoro-1-hydroxyethyl)-3,3-difluoro-2-oxo-2,3-dihydro-1H-indol-1-yl]methyl}-3-(trifluoromethyl) pyridine-2-carbonitrile]	–	IC50 [1]: 8.4 nM
O=C1N(Cc2ccc(C(F)(F)F)nc2)c2cccc(C(O)C(F)F)c2C1(F)F (single isomer, unassigned) [Compound 161, 4-(2,2-difluoro-1-hydroxyethyl)-3,3-difluoro-1-{[6-(trifluoromethyl)pyridin-3-yl]methyl}-1,3-dihydro-2H-indol-2-one]	–	IC50: 90 nM
O=C1N(Cc2ccnc(-n3nccn3)c2)c2cccc(C(O)C(F)F)c2C1(F)F (single isomer, unassigned) [Compound 147, 4-(2,2-difluoro-1-hydroxyethyl)-3,3-difluoro-1-{[2-(2H-1,2,3-triazol-2-yl)pyridin-4-yl]methyl}-1,3-dihydro-2H-indol-2-one]	360 nM	–
C[C@H](O)c1cccc2c1C(F)(F)C(=O)N2Cc1ccc(C(F)(F)F)nc1 [Compound 118, 3,3-difluoro-4-[(1S)-1-hydroxyethyl]-1-{[6-(trifluoromethyl)pyridin-3-yl]methyl}-1,3-dihydro-2H-indol-2-one]	27 nM	–
O=C1N(Cc2ccc(F)cn2)c2cccc(C(O)C(F)F)c2C1(F)F (single isomer, unassigned) [Compound 168, 4-(2,2-difluoro-1-hydroxyethyl)-3,3-difluoro-1-[(5-fluoropyridin-2-yl)methyl]-1,3-dihydro-2H-indol-2-one]	–	IC50: 280 nM
O=C1N(Cc2cncc(Cl)c2)c2ccc(F)c(C(O)C(F)(F)F)c2C1(F)F (single isomer, unassigned) [Compound 49, 1-[(5-chloropyridin-3-yl)methyl]-3,3,5-trifluoro-4-(2,2,2-trifluoro-1-hydroxyethyl)-1,3-dihydro-2H-indol-2-one]	1500 nM	–
